Test results reported in the supplement of paper PMC10331698.
± gives the standard deviation of the averaged measurements.

Columns and labels:
Test in all cases: LOEC (log10 uM (lowest observed effect concentration))
[1] = compound: O=C(O)C=C(C(F)(F)F)C(F)(F)F [3,3-Bis(trifluoromethyl)-2-propenoic acid]
Description: (§1)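 BioMAP Diversity Plus panel in human primary cell co-cultures, 4 concentrations in duplicate blinded samples. Responses are log10 fold change versus DMSO control, processed with tcpl v2.1.0. A hit is called when responses at any concentration exceed the cutoff (the larger of 3*bmad or log10(1.2)); the lowest observed effect concentration (modl_ga, log10 uM) is reported for hits.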

[2] = compound: OCC(F)(F)OC(F)(F)C(F)(F)OC(F)(F)C(F)(F)OC(F)(F)CO [1H,1H,11H,11H-Perfluorotetraethylene glycol]
Description: as §1

[3] = compound: O=C(O)C(F)(F)C(F)(F)C(F)(F)C(F)(F)C(F)(F)C(F)(F)C(F)(F)C(F)(F)F [Perfluorononanoic acid]
Description: as §1

[4] = compound: OCC(F)(F)C(F)(F)C(F)(F)C(F)(F)C(F)(F)C(F)(F)CO [1H,1H,8H,8H-Perfluorooctane-1,8-diol]
Description: as §1

[5] = compound: O=S(=O)(O)C(F)(F)C(F)(F)C(F)(F)C(F)(F)C(F)(F)C(F)(F)C(F)(F)F [Perfluoroheptanesulfonic acid]
Description: as §1

[6] = compound: O=C(O)C(F)(F)OC(F)(F)C(F)(F)OC(F)(F)C(F)(F)OC(F)(F)C(F)(F)C(F)(F)C(F)(F)F [Perfluoro-3,6,9-trioxatridecanoic acid]
Description: as §1

[7] = compound: NS(=O)(=O)C(F)(F)C(F)(F)C(F)(F)C(F)(F)C(F)(F)C(F)(F)C(F)(F)C(F)(F)F [Perfluorooctanesulfonamide]
Description: as §1

[8] = compound: C[C@@H]1C[C@H]2[C@@H]3CCC4=CC(=O)C=C[C@]4(C)[C@@]3(F)[C@@H](O)C[C@]2(C)[C@@]1(O)C(=O)COP(=O)(O)O [Dexamethasone sodium phosphate]
Description: as §1

[9] = compound: O=S(=O)(O)CCC(F)(F)C(F)(F)C(F)(F)C(F)(F)C(F)(F)C(F)(F)C(F)(F)C(F)(F)F [8:2 Fluorotelomer sulfonic acid]
Description: as §1

[10] = compound: O=S(=O)(O)C(F)(F)C(F)(F)OC(F)(F)C(F)(F)F [Perfluoro(2-ethoxyethane)sulfonic acid]
Description: as §1

[11] = compound: O=C(O)C(F)(OC(F)(F)C(F)(F)C(F)(F)F)C(F)(F)F [Ammonium perfluoro-2-methyl-3-oxahexanoate]
Description: as §1

[12] = compound: CCNS(=O)(=O)C(F)(F)C(F)(F)C(F)(F)C(F)(F)C(F)(F)C(F)(F)C(F)(F)C(F)(F)F [N-Ethylperfluorooctanesulfonamide]
Description: as §1

[13] = compound: O=C(O)C(F)(F)C(F)(F)C(F)(F)C(F)(F)C(F)(F)C(F)(F)C(F)(F)C(F)(F)C(F)(F)C(F)(F)F [Perfluoroundecanoic acid]
Description: as §1

| Test System | LOEC (log10 uM) [1] | LOEC (log10 uM) [2] | LOEC (log10 uM) [3] | LOEC (log10 uM) [4] | LOEC (log10 uM) [5] | LOEC (log10 uM) [6] | LOEC (log10 uM) [7] | LOEC (log10 uM) [8] | LOEC (log10 uM) [9] | LOEC (log10 uM) [10] | LOEC (log10 uM) [11] | LOEC (log10 uM) [12] | LOEC (log10 uM) [13] |
| --- | --- | --- | --- | --- | --- | --- | --- | --- | --- | --- | --- | --- | --- |
| IMphg IL10 down | 0.845 | 1.78 | 1.78 | 1.31 ± 0.66 | 1.48 | 1.78 | 1.54 ± 0.34 | 0 | 1.3 | 1.78 | 0.301 |  |  |
| IMphg MCP1 down |  |  |  |  |  | 1.3 | 1.54 ± 0.34 | 0.477 |  |  |  | 1.78 |  |
| IMphg MIP1a down |  |  |  |  |  | 1.54 ± 0.34 |  | 0 |  |  |  |  |  |
| IMphg VCAM1 down | 1.78 |  | 1.78 |  |  | 1.78 | 1.78 | 1.48 |  |  |  | 1.78 |  |
| KF3CT IL1a down |  |  | 0.801 ± 0.71 |  |  | 1.3 | 1.78 |  | 1.3 |  |  | 1.78 | 0.845 |
| LPS CD40 down | 1.78 |  | 1.78 |  |  | 1.78 | 1.78 |  |  |  |  | 1.78 |  |
| LPS IL1a down |  |  | 1.78 |  |  | 1.78 | 1.78 |  | 1.78 |  |  |  | -0.427 ± 0.39 |
| LPS IL8 up |  |  |  |  |  |  |  |  |  | 1.54 ± 0.34 | 1.54 ± 0.34 |  |  |
| LPS MCSF down | 1.31 ± 0.66 |  |  |  |  | 1.78 | 1.78 |  |  |  |  |  |  |
| LPS PGE2 down |  |  | 1.54 ± 0.34 |  |  | 1.78 |  | 1.22 ± 0.37 | 1.78 |  |  |  |  |
| LPS TNFa down |  |  |  |  |  | 1.78 | 1.78 | 0.954 |  |  |  |  | 0.845 |
| LPS Thrombomodulin up |  | 1.04 ± 1 |  |  |  | 1.78 |  |  | 1.54 ± 0.34 |  |  | 1.78 |  |
| LPS VCAM1 down | 0.573 ± 0.39 |  | 1.78 |  |  | 1.78 | 1.78 |  |  |  |  |  |  |
| MyoF ACTA1 down |  | 1.78 | 1.78 |  |  | 0.845 | 1.3 |  |  |  |  | 1.78 | 0.845 |
| MyoF VCAM1 down | 1.3 |  | 1.78 |  |  | 0.845 | 1.3 |  |  |  |  | 1.3 | 0.845 |
| SAg CD40 down |  | 1.78 | 1.78 |  |  | 1.78 | 1.3 |  |  |  |  | 1.3 | 0.845 |
| SAg CD69 down | 1.78 |  | 1.78 |  |  | 1.54 ± 0.34 | 1.54 ± 0.34 |  |  |  |  | 1.3 | 0.845 |
| SAg Eselectin down | 1.3 | 1.78 |  |  |  | 1.78 | 1.78 | 0.716 ± 0.34 |  |  |  | 1.78 |  |
| SAg IL8 down | 1.78 | 1.78 | 1.78 |  |  | 1.3 | 1.78 |  |  |  |  | 1.78 |  |
| SAg Proliferation down | 1.78 |  | 1.78 |  |  | 1.78 | 1.78 |  |  |  |  | 1.78 |  |
| hDFCGF IP10 down |  | 1.3 | 1.78 |  |  | 0.845 | 0.573 ± 0.39 |  |  |  |  | 0.845 | 0.301 |
| hDFCGF ITAC down |  | 1.3 | 1.78 |  |  | 0.845 | 0.845 |  |  |  |  | 0.845 | 0.845 |
| hDFCGF MCP1 down |  | 1.54 ± 0.34 |  |  |  | 0.845 | 1.3 |  |  |  |  | 1.78 | 0.573 ± 0.39 |
| hDFCGF MCSF down |  | 1.54 ± 0.34 |  |  |  | 0.845 | 1.3 |  |  |  |  | 1.3 | 0.845 |
| hDFCGF MIG down |  | 0.845 | 1.54 ± 0.34 |  |  | 0.845 | 0.573 ± 0.39 |  |  |  |  | 1.3 | 0.845 |
| hDFCGF MMP1 down |  |  |  |  |  | 0.845 | 1.3 | 0.954 |  |  |  | 1.78 | 0.845 |
| hDFCGF MMP1 up |  | 1.54 ± 0.34 |  |  |  |  |  |  |  |  |  |  |  |
| hDFCGF Proliferation down | 1.78 | 1.04 ± 1 | 1.54 ± 0.34 |  |  | 0.845 | 1.3 |  |  |  |  | 1.3 | 0.301 |
| hDFCGF VCAM1 down | 1.78 | 1.3 |  |  |  | 0.845 | 1.07 ± 0.32 |  |  |  |  | 0.301 | 0.301 |
